In patent US10130642B2, “Neprilysin inhibitors” (THERAVANCE BIOPHARMA R&D IP, LLC, priority 2011, dated 2018):

Biological target: human NEP (Homo sapiens (Human), UniProt P08473)
Experiment: In vitro enzyme inhibition assay, inhibitor potencies at human NEP
Details: not given

Sequence of human NEP (P08473 52-750): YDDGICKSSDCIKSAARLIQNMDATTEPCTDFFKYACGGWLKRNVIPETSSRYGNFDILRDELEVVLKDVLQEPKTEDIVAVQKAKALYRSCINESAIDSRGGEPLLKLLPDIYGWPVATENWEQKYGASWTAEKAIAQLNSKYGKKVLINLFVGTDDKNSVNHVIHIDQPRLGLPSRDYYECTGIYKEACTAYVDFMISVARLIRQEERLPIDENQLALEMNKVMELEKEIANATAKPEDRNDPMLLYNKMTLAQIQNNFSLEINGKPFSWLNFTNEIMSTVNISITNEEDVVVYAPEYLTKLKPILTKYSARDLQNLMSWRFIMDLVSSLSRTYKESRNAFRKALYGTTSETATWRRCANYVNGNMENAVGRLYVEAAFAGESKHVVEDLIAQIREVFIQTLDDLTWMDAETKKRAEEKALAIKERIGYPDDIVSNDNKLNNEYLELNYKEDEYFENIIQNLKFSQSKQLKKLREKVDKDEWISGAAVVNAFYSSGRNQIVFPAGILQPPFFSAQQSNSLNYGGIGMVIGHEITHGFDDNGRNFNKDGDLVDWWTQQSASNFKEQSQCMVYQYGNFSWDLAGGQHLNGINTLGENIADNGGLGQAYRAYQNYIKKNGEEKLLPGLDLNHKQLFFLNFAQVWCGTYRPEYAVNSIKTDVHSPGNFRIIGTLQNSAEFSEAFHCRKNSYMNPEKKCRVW

| SMILES | Ki [nM] |
| --- | --- |
| O=C(N[C@H](Cc1ccc(-c2ccccc2)cc1)C[C@@H](CO)C(=O)O)c1nc(Cl)n[nH]1 [Example 2A, (2S,4S)-5-Biphenyl-4-yl-4-[(5-chloro-2H-[1,2,4]-triazole-3-carbonyl)-amino]-2-hydroxymethyl-pentanoic acid] | 1.26 to 10 |
| O=C(N[C@H](Cc1ccc(-c2ccccc2)cc1)C[C@@H](CO)C(=O)O)c1cn(O)nn1 [Example 4-7, (2S,4S)-5-Biphenyl-4-yl-2-hydroxymethyl-4-[(1-hydroxy-1H-[1,2,3]triazole-4-carbonyl)-amino]-pentanoic acid] | ≤ 1 |
| O=C(N[C@H](Cc1ccc(-c2ccccc2F)cc1)C[C@@H](CO)C(=O)O)c1cn(O)nn1 [Example 4-8, (2S,4S)-5-(2′-Fluorobiphenyl-4-yl)-2-hydroxymethyl-4-[(1-hydroxy-1H-[1,2,3]triazole-4-carbonyl)-amino]-pentanoic acid] | ≤ 1 |
| O=C(N[C@H](Cc1ccc(-c2ccccc2F)cc1)C[C@@H](CO)C(=O)O)c1nc(Cl)n[nH]1 [Example 4-16, (2S,4S)-4-[(5-Chloro-2H-[1,2,4]triazole-3-carbonyl)-amino]-5-(2′-fluorobiphenyl-4-yl)-2-hydroxymethyl-pentanoic acid] | ≤ 1 |
| CN(C)C(=O)c1cc(C(=O)N[C@H](Cc2ccc(-c3ccccc3)cc2)C[C@H](CO)C(=O)O)[nH]n1 [Example 4-20, (2R,4S)-5-Biphenyl-4-yl-4-[(5-dimethylcarbamoyl-2H-pyrazole-3-carbonyl)-amino]-2-hydroxymethyl-pentanoic acid] | 12.6 to 100 |
| CN(C)C(=O)c1cc(C(=O)N[C@H](Cc2ccc(-c3ccccc3)cc2)C[C@@H](CO)C(=O)O)[nH]n1 [Example 4-21, (2S,4S)-5-Biphenyl-4-yl-4-[(5-dimethylcarbamoyl-2H-pyrazole-3-carbonyl)-amino]-2-hydroxymethyl-pentanoic acid] | 1.26 to 10 |
| O=C(N[C@H](Cc1ccc(-c2ccccc2)cc1)C[C@@H](CO)C(=O)O)c1cc(C(=O)N2CCC2)n[nH]1 [Example 4-24, (2S,4S)-4-{[5-(Azetidine-1-carbonyl)-2H-pyrazole-3-carbonyl]-amino}-5-biphenyl-4-yl-2-hydroxymethyl-pentanoic acid] | ≤ 1 |
| O=C(N[C@H](Cc1ccc(-c2ccccc2)cc1)C[C@@H](CO)C(=O)O)c1cc(C(=O)N2CCCC2)n[nH]1 [Example 4-25, (2S,4S)-5-Biphenyl-4-yl-2-hydroxymethyl-4-{[5-(pyrrolidine-1-carbonyl)-2H-pyrazole-3-carbonyl]-amino}-pentanoic acid] | ≤ 1 |
| O=C(N[C@H](Cc1ccc(-c2ccccc2)cc1)C[C@@H](CO)C(=O)O)c1cc(-c2ccccc2Cl)n[nH]1 [Example 4-27, (2S,4S)-5-Biphenyl-4-yl-4-{[5-(2-chloro-phenyl)-2H-pyrazole-3-carbonyl]-amino}-2-hydroxymethyl-pentanoic acid] | ≤ 1 |
| CCCCc1cc(C(=O)N[C@H](Cc2ccc(-c3ccccc3)cc2)C[C@@H](CO)C(=O)O)[nH]n1 [Example 4-28, (2S,4S)-5-Biphenyl-4-yl-4-[(5-butyl-2H-pyrazole-3-carbonyl)-amino]-2-hydroxymethyl-pentanoic acid] | ≤ 1 |

Other lines, results leading:

| Ki [nM] | SMILES |
| --- | --- |
| 1.26 to 10 | O=C(N[C@H](Cc1ccc(-c2ccccc2)cc1)C[C@H](CO)C(=O)O)c1cnn[nH]1 [Example 4-1, (2R,4S)-5-Biphenyl-4-yl-2-hydroxymethyl-4-[(3H-[1,2,3]triazole-4-carbonyl)-amino]-pentanoic acid] |
| ≤ 1 | O=C(N[C@H](Cc1ccc(-c2ccccc2F)cc1)C[C@@H](CO)C(=O)O)c1cnn[nH]1 [Example 4-2, (2S,4S)-5-(2′-Fluorobiphenyl-4-yl)-2-hydroxymethyl-4-[(3H-[1,2,3]triazole-4-carbonyl)-amino]-pentanoic acid] |
| ≤ 1 | O=C(N[C@H](Cc1ccc(-c2cccc(F)c2)cc1)C[C@@H](CO)C(=O)O)c1cnn[nH]1 [Example 4-3, (2S,4S)-5-(3′-Fluorobiphenyl-4-yl)-2-hydroxymethyl-4-[(3H-[1,2,3]triazole-4-carbonyl)-amino]-pentanoic acid] |
| ≤ 1 | O=C(N[C@H](Cc1ccc(-c2cccc(Cl)c2)cc1)C[C@@H](CO)C(=O)O)c1c[nH]nn1 [Example 4-9, (2S,4S)-5-(3′-Chloro-biphenyl-4-yl)-2-hydroxymethyl-4-[(1H-[1,2,3]triazole-4-carbonyl)-amino]-pentanoic acid] |
| ≤ 1 | O=C(N[C@H](Cc1ccc(-c2cccc(Cl)c2)cc1)C[C@@H](CO)C(=O)O)c1cn(O)nn1 [Example 4-10, (2S,4S)-5-(3′-Chloro-biphenyl-4-yl)-2-hydroxymethyl-4-[(1-hydroxy-1H-[1,2,3]triazole-4-carbonyl)-amino]-pentanoic acid] |
| 12.6 to 100 | Cc1n[nH]c(C(=O)N[C@H](Cc2ccc(-c3ccccc3)cc2)C[C@@H](CO)C(=O)O)n1 [Example 4-13, (2S,4S)-5-Biphenyl-4-yl-2-hydroxymethyl-4-[(5-methyl-2H-[1,2,4]triazole-3-carbonyl)-amino]-pentanoic acid] |
| ≤ 1 | O=C(N[C@H](Cc1ccc(-c2ccccc2)cc1)C[C@@H](CO)C(=O)O)c1nc(O)n[nH]1 [Example 4-14, (2S,4S)-5-Biphenyl-4-yl-2-hydroxymethyl-4-[(5-hydroxy-2H-[1,2,4]triazole-3-carbonyl)-amino]-pentanoic acid] |
| ≤ 1 | O=C(N[C@H](Cc1ccc(-c2ccccc2)cc1)C[C@@H](CO)C(=O)O)c1cc(O)n[nH]1 [Example 4-17, (2S,4S)-5-Biphenyl-4-yl-2-hydroxymethyl-4-[(5-hydroxy-2H-pyrazole-3-carbonyl)-amino]-pentanoic acid] |
| ≤ 1 | O=C(O)c1cc(C(=O)N[C@H](Cc2ccc(-c3ccccc3)cc2)C[C@@H](CO)C(=O)O)[nH]n1 [Example 4-18, 5-((1S,3S)-1-Biphenyl-4-ylmethyl-3-carboxy-4-hydroxy-butylcarbamoyl)-1H-pyrazole-3-carboxylic acid] |
| ≤ 1 | O=C(N[C@H](Cc1ccc(-c2cccc(F)c2)cc1)C[C@@H](CO)C(=O)O)c1cc(-c2ccccc2Cl)n[nH]1 [Example 4-29, (2S,4S)-4-{[5-(2-Chlorophenyl)-2H-pyrazole-3-carbonyl]-amino}-5-(3′-fluorobiphenyl-4-yl)-2-hydroxymethyl-pentanoic acid] |
| ≤ 1 | O=C(N[C@H](Cc1ccc(-c2cccc(F)c2)cc1)C[C@@H](CO)C(=O)O)c1cc(-c2ccccn2)n[nH]1 [Example 4-30, (2S,4S)-5-(3′-Fluorobiphenyl-4-yl)-2-hydroxymethyl-4-[(5-pyridin-2-yl-2H-pyrazole-3-carbonyl)-amino]-pentanoic acid] |

Same assay, conditions: pKi values at human NEP; recombinant human NEP, fluorogenic peptide substrate, 37° C.

| pKi | SMILES |
| --- | --- |
| ≥9.0 | O=C(N[C@H](Cc1ccc(-c2ccccc2)cc1)C[C@@H](CO)C(=O)O)c1cnn[nH]1 [Example 1B, (2S,4S)-5-Biphenyl-4-yl-2-hydroxymethyl-4-[(3H-[1,2,3]triazole-4-carbonyl)-amino]-pentanoic acid] |
| ≥9.0 | O=C(N[C@H](Cc1ccc(-c2cccc(F)c2)cc1)C[C@@H](CO)C(=O)O)c1nc(Cl)n[nH]1 [Example 3B, (2S,4S)-4-[(5-Chloro-2H-[1,2,4]triazole-3-carbonyl)amino]-5-(3′-fluorobiphenyl-4-yl)-2-hydroxymethyl-pentanoic acid] |

| SMILES | pKi |
| --- | --- |
| COCCN(C)C(=O)c1cc(C(=O)N[C@H](Cc2ccc(-c3ccccc3)cc2)C[C@@H](CO)C(=O)O)[nH]n1 [Example 4-22] | 8.0-8.9 |
